Assay results: ChEMBL document CHEMBL1201862, “PubChem BioAssay data set” (2004)
Activity calls are given as the source filed them.

Tests used:
[1] = NIH-3T3 fibroblast cytotoxicity, dose response, cytotoxicity control, cell-based, fluorescence, Alamar Blue, secondary assay (AID 2327); format: functional;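 further: NIH-3T3 mouse fibroblasts cultured with fluconazole at 8 µg/mL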
[2] = C. albicans growth with fluconazole, confirmation, fluorescence, retest (AID 2467); format: functional, cell-based
Cytochrome P450 2D6 = Cytochrome P450 2D6 (Homo sapiens, UniProt P10635);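 further: CYP2D6 member of a cytochrome P450 panel assay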
Cytochrome P450 2C9 = Cytochrome P450 2C9 (Homo sapiens, UniProt P11712)
[3] = biological target: T1, Rac GTPase-activating protein 1 (Homo sapiens, UniProt Q9H0H5); assay: MgcRacGAP GTPase-activating activity inhibitors, confirmation, biochemical, ADP Hunter fluorescence, primary and confirmatory (AID 624330); format: functional
T1 sequence (Q9H0H5 whole entry): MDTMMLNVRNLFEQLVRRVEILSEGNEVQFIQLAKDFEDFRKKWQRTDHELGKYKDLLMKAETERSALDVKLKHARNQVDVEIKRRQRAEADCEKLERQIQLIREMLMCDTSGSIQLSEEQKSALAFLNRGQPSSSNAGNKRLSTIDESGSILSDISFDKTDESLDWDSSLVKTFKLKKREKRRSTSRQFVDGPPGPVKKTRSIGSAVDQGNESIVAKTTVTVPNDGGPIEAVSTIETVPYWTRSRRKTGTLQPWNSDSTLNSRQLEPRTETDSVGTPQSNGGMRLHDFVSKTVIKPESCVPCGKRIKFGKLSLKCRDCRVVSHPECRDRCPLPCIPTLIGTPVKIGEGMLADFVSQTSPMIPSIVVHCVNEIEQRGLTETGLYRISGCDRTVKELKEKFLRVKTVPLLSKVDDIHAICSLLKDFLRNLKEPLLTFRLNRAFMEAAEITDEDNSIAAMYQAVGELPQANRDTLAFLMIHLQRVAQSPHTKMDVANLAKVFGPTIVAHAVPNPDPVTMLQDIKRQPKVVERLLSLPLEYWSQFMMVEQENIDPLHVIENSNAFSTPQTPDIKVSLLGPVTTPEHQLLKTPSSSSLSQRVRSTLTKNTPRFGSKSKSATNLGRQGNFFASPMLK

[4] = biological target: FAD-linked sulfhydryl oxidase ALR (Homo sapiens, UniProt P55789); assay: inhibitors of human ALR sulfhydryl oxidase, dose response, biochemical, H2O2 detection, luminescence, cherry-pick (AID 493248)
Cytochrome P450 1A2 = biological target: T2, Cytochrome P450 1A2 (Homo sapiens, UniProt P05177);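 further: PubChem cytochrome P450 panel assay, CYP1A2 panel member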
T2 sequence (P05177 whole entry): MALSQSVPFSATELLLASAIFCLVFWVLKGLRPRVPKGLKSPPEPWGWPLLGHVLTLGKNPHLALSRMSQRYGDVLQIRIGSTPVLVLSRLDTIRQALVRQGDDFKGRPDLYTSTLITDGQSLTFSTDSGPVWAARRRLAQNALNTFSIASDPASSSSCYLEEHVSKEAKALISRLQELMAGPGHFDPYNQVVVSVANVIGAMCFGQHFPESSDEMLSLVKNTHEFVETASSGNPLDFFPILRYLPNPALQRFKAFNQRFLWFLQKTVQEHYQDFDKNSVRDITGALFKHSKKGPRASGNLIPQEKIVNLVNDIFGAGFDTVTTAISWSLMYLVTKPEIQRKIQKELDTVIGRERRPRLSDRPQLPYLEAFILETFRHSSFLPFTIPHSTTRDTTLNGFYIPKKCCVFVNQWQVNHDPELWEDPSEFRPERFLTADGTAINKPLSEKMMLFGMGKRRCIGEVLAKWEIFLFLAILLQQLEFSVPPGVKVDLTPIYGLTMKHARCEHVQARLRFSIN

Cytochrome P450 3A4 = Cytochrome P450 3A4 (Homo sapiens, UniProt P08684);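 further: CYP3A4 tested as one member of a cytochrome P450 panel screen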
Cytochrome P450 2C19 = Cytochrome P450 2C19 (Homo sapiens, UniProt P33261); assay: Cytochrome panel assay with activity outcomes. Panel member name: p450-cyp2c19 Compounds with AC50 equal or less than 10 uM are considered active; format: functional; conditions: read-out: AC50
[5] = Shn3 3'UTR reporter inhibitors, dose response, cell-based, Clone20 osteoblasts, firefly luciferase, cherry-picked (AID 624132); format: functional;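 further: firefly luciferase luminescence from reporter carrying the Shn3 3'UTR in osteoblasts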
[6] = HepG2 cell cytotoxicity, dose response, cytotoxicity control for Shn3 inhibitor project, CellTiter-Glo, cherry-picked (AID 624134); format: functional, cell-based
[7] = control 3'UTR Renilla luciferase suppression, dose response, counter-screen for Shn3 inhibitor project, cell-based, Clone20-Shn3RL, cherry-picked (AID 624133); format: functional
[8] = microbe, parasite or virus in culture; format: functional; conditions: Mycobacterium tuberculosis
[9] = Luminescence Cell-Based Dose Retest to Confirm Inhibitors of Cancer Stem Cells. [Related pubchem assays (depositor defined):AID2717, AID2721]; format: functional; conditions: Homo sapiens
[10] = HEp-2 cell cytotoxicity, dose response, cytotoxicity control for RSV inhibitor project, HTS (AID 2410); format: functional; conditions: human respiratory syncytial virus
Paired box protein Pax-8 = Paired box protein Pax-8 (Homo sapiens, UniProt Q06710); assay: inhibitors of PAX8-driven TPO luciferase reporter, dose response, RMG-I cells, cherry-pick (AID 687027); format: functional, cell-based;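 further: luciferase reporter driven by Pax8 target thyroperoxidase promoter measured by SteadyGlo luminescence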
[11] = P. falciparum Dd2 growth inhibitors, dose response, SYBR Green, cherry-picked samples (AID 1159567); format: functional, cell-based

Cytochrome P450 2C9, sequence (P11712 whole entry): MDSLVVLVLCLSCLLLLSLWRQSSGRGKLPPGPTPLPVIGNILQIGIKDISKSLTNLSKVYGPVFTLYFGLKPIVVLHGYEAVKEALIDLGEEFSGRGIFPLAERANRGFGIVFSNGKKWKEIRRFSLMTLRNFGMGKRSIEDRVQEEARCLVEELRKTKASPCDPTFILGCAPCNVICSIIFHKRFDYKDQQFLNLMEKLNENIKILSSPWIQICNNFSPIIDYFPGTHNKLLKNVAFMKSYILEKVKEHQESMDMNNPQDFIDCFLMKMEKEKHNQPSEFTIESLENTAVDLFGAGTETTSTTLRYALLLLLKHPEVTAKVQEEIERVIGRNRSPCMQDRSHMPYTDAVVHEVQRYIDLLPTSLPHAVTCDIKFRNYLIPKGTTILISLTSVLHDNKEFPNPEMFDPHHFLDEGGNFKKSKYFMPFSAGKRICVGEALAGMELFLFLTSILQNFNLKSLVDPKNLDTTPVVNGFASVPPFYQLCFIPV
Cytochrome P450 2C19, sequence (P33261 whole entry): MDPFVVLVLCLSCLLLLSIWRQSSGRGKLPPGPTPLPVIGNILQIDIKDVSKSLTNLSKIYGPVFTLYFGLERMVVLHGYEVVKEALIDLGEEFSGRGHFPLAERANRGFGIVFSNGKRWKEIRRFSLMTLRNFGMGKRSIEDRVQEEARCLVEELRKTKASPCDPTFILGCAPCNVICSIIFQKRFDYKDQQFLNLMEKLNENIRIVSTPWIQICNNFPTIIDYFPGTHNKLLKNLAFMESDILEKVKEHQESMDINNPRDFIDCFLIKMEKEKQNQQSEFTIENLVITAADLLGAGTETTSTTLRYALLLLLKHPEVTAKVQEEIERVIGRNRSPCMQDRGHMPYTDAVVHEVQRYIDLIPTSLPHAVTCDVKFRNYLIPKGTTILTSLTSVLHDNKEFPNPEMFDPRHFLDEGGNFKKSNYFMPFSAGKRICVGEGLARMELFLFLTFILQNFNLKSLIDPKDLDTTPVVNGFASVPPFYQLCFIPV
Cytochrome P450 3A4, sequence (P08684 whole entry): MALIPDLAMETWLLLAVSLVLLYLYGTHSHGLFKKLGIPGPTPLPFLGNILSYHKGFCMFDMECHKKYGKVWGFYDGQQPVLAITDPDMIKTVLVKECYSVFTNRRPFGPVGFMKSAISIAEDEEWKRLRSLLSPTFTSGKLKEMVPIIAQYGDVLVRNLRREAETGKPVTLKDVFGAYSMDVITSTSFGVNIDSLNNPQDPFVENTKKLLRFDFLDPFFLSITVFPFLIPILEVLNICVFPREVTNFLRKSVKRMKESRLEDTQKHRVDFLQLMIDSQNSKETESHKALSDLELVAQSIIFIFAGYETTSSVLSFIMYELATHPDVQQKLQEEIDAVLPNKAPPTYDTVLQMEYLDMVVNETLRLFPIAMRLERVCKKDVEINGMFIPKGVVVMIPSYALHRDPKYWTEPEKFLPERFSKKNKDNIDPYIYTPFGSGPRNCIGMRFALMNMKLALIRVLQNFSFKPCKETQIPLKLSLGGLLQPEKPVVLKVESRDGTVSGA
Cytochrome P450 2D6, sequence (P10635 whole entry): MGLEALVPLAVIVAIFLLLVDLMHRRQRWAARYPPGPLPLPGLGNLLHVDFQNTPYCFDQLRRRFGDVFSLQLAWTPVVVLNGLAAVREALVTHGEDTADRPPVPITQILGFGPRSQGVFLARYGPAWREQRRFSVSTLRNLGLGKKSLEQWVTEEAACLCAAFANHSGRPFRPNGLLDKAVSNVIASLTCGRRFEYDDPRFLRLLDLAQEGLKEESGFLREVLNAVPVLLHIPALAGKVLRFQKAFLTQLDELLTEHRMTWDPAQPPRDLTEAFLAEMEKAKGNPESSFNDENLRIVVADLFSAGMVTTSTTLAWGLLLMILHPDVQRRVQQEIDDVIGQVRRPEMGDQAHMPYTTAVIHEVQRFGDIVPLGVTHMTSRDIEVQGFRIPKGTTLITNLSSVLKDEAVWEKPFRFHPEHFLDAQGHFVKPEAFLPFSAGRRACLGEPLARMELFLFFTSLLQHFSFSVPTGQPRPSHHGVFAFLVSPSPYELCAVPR
FAD-linked sulfhydryl oxidase ALR, sequence (P55789 whole entry): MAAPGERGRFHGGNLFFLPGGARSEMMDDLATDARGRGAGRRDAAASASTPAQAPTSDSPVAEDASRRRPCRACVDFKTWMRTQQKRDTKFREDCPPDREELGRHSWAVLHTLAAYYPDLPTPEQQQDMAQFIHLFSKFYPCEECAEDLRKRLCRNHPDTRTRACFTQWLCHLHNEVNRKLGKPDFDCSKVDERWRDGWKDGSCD
Paired box protein Pax-8, sequence (Q06710 whole entry): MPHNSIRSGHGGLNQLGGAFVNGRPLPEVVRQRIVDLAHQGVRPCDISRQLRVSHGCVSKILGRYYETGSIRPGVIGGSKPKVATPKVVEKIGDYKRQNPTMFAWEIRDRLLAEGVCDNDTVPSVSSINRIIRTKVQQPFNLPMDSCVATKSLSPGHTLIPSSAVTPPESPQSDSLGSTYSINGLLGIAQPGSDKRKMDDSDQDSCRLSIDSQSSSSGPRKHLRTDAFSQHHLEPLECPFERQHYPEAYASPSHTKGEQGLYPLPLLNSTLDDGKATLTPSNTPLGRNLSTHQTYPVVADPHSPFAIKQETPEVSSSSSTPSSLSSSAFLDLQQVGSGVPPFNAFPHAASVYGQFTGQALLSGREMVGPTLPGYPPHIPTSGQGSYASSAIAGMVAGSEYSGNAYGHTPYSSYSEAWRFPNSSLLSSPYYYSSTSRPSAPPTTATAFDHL

## COC(=O)c1cn(CC(=O)NC2CCCCC2)c2ccccc12
[1]
  EC50: > 150 µM (inactive)
[2]
  EC50: > 38 µM (not active)

## COc1ccc(-c2cc(-c3cc(F)ccc3O)[nH]n2)cc1OC
[1]
  EC50: > 150 µM (inactive)
Cytochrome P450 2D6
  AC50: 28.2 µM (inconclusive)
Cytochrome P450 2C9
  AC50: 39.8 µM (inconclusive)

## CCOCCCNCC(=O)NCC1CCCCC1
[3]
  IC50: 141 µM (active)

## O=[N+]([O-])c1ccc(-c2cn(-c3ccccc3F)c(=S)[nH]2)cc1
[4]
  AC50: > 100 µM (inactive)

## O=C(OC1CCN(CCCl)CC1)C(c1ccccc1)c1ccccc1
Cytochrome P450 2D6
  AC50: 31.6 µM (inconclusive)
Cytochrome P450 1A2
  AC50: 12.6 µM (inconclusive)
Cytochrome P450 3A4
  AC50: 10 µM (inconclusive)

## COc1ccc(OC)c2nc(O)c(CCNS(=O)(=O)c3ccc(Cl)cc3)cc12
Cytochrome P450 2C19
  AC50: 8.91 µM (inconclusive)
Cytochrome P450 2D6
  AC50: 31.6 µM (inconclusive)
Cytochrome P450 3A4
  AC50: 5.62 µM (inconclusive)

## O=C(Nc1ccccc1)c1cc(-n2cnnc2)ccc1Cl
Cytochrome P450 1A2
  AC50: 12.6 µM (inconclusive)
Cytochrome P450 2C9
  AC50: 25.1 µM (inconclusive)

## O=C(C1CC1)N1CCN=C1SCc1ccccc1Cl
[4]
  AC50: 2.29 µM (active)

## CC(C)c1ccc(NC(=O)C(c2ccccc2)N2CCN(C=O)CC2)cc1 (stereo not drawn)
Cytochrome P450 2C19
  AC50: 28.2 µM (inconclusive)
Cytochrome P450 2D6
  AC50: 14.1 µM (inconclusive)
Cytochrome P450 1A2
  AC50: 31.6 µM (inconclusive)
Cytochrome P450 3A4
  AC50: 11.2 µM (inconclusive)
Cytochrome P450 2C9
  AC50: 14.1 µM (inconclusive)

## CCc1ccccc1N1C(=O)CC(N2CCc3ccccc32)C1=O (stereo not drawn)
[4]
  AC50: 2.81 µM (active)

## O=C(NCc1cccnc1)c1ccc(COc2ccccc2Cl)cc1
[4]
  AC50: 0.055 µM (active)

## NC(=O)CC(NC(=O)c1ccccc1)c1ccc(N2CCC(Cc3ccccc3)CC2)c([N+](=O)[O-])c1 (stereo not drawn)
[5]
  AC50: 2.61 µM (active)
[6]
  AC50: 2.74 µM (active)
[7]
  AC50: 4.2 µM (active)

## Cc1cccc(NC(=O)c2nc[nH]c2C(=O)N[C@H](C)c2ccccc2)c1
[8]
  CC50: 36.9 µM (active)
[9]
  AC50: 6.42 µM (active)

## CC(C)CN1C(=O)c2ccc(C(=O)Nc3ccccc3C(=O)O)cc2C1=O
[4]
  AC50: > 100 µM (inactive)

## CC1CCCCN1Cc1cccnc1 (stereo not drawn)
[3]
  IC50: 109 µM (active)

## N#Cc1ccc(OCC(O)CN2CCN(c3ncc(C(F)(F)F)cc3Cl)CC2)cc1 (stereo not drawn)
[8]
  CC50: > 40 µM (active)

## Cc1nc(NC(=O)CC(C)C)sc1-c1csc(Nc2ccc(Cl)cc2Cl)n1
[10]
  CC50: 22.9 µM (active)
[8]
  CC50: > 40 µM (active)
[9]
  AC50: 1.85 µM (active)

## CCOC(=O)Cc1csc(NC(=S)NC(=O)c2ccc(F)cc2)n1
Cytochrome P450 1A2
  AC50: 1.12 µM (inconclusive)
Cytochrome P450 3A4
  AC50: 17.8 µM (inconclusive)
Cytochrome P450 2C9
  AC50: 1.26 µM (inconclusive)

## CCN(CC)CC(=O)NN(Cc1ccccc1)c1ccccc1
[3]
  IC50: 108 µM (active)

## C[N+](C)(C)/N=C\c1ccc(O)c(O)c1
Cytochrome P450 2D6
  AC50: 2 µM (inconclusive)
Cytochrome P450 1A2
  AC50: 10 µM (inconclusive)

## CCc1nn(C)c(-c2nnc(S)n2N)c1Cl
[4]
  AC50: 0.673 µM (active)
Cytochrome P450 2C9
  AC50: 28.2 µM (inconclusive)

## CCOc1ccc2nc(N=C(N)N=C(S)Nc3cccc(C)c3)nc(C)c2c1
[8]
  CC50: > 40 µM (active)

## COc1cc(/C=C2/C(=O)NN(c3ccccc3)C2=O)cc(Br)c1O
[4]
  AC50: 0.484 µM (active)

## CCc1ccc(CNC(=O)c2cc3c(C)nc4ccccc4c3o2)cc1
[5]
  AC50: 2.02 µM (active)
[6]
  AC50: > 70 µM (inactive)
[7]
  AC50: 7.78 µM (active)

## Cc1nc(-c2nc(-c3c(C(=O)NNC(=O)c4ccc(Cl)cc4)noc3C)cs2)cs1
[8]
  CC50: > 40 µM (active)

## Cc1nc2nc(C)c(CCC(=O)NCCCN3CCN(c4cccc(Cl)c4)CC3)c(C)n2n1
Cytochrome P450 2C19
  AC50: 25.1 µM (inconclusive)
Cytochrome P450 2D6
  AC50: 12.6 µM (inconclusive)

## O=C(Nc1cccc(F)c1)c1ccc2ncsc2c1
[1]
  EC50: > 150 µM (inactive)
[2]
  EC50: 3.17 µM (active)

## CCc1ccc(CCN2CCCCC2)nc1
Cytochrome P450 1A2
  AC50: 5.01 µM (inconclusive)

## O=C(/C=C/c1ccccc1)NNc1ccc(Cl)cc1
[1]
  EC50: 28.1 µM (inconclusive)
[2]
  EC50: 2.71 µM (active)
[9]
  AC50: 5.85 µM (active)

## Oc1ccc(Cl)cc1C1=NNC(c2cc(Br)cc3c2OCOC3)C1 (stereo not drawn)
[1]
  EC50: > 160 µM (inactive)
[2]
  EC50: > 38 µM (not active)

## COc1ccc(-n2c(=O)c(-c3ccc(Cl)cc3)nc3cnc(N4CCNCC4)nc32)cc1
Cytochrome P450 1A2
  AC50: 12.6 µM (inconclusive)

## Nn1c(S)nnc1Cc1ccccc1
[4]
  AC50: 0.134 µM (active)

## OCCn1cnc2c(SCc3ccccc3)ncnc21
Cytochrome P450 1A2
  AC50: 3.16 µM (inconclusive)

## COc1cccc(C(=O)Nc2cc3c(cc2N2CCCC2)n(C)c(=O)n3C)c1
[3]
  IC50: 156 µM (active)

## N#CCC(=O)Nc1ccc(C(=O)NCc2cccc(Cl)c2)cc1
[4]
  AC50: 9.8 µM (active)

## Nc1ccc2ccc(O)cc2c1
[3]
  IC50: 36.7 µM (active)

## O=C(NCc1ccco1)c1cc(C(=O)C2CC2)c[nH]1
Cytochrome P450 1A2
  AC50: 0.2 µM (inconclusive)
Cytochrome P450 2C9
  AC50: 39.8 µM (inconclusive)

## CC(=O)N1CCN(c2ccc(NCc3ccco3)cc2)CC1
[3]
  IC50: 14.6 µM (active)

## OCC1OC(n2cnc3c(O)nnnc32)C(O)C1O (stereo not drawn)
Paired box protein Pax-8
  AC50: 0.785 µM (active)

## CCCN(C)C[C@H]1OCCCC[C@@H](C)Oc2ccc(NC(=O)c3ccccc3)cc2C(=O)N([C@H](C)CO)C[C@H]1C
Paired box protein Pax-8
  AC50: 69.5 µM (active)

## NC(=S)n1[nH]c(-c2ccccc2)c(N=Nc2ccccc2C(=O)N2CCOCC2)c1=O
[1]
  EC50: > 150 µM (inactive)
[2]
  EC50: 7.72 µM (active)

## CCc1ccc(N2CC(C(=O)N/N=C/c3cc([N+](=O)[O-])ccc3O)CC2=O)cc1 (stereo not drawn)
[1]
  EC50: 23.1 µM (active)
[2]
  EC50: > 38 µM (not active)

## Nc1cccc(/C=C/c2ccncc2)c1
[4]
  AC50: 0.59 µM (active)

## O=C(CCN1CCN(C(c2ccccc2)c2ccccc2)CC1)N/N=C/c1ccc(O)cc1
[4]
  AC50: 1.6 µM (active)
[3]
  IC50: 88.2 µM (active)

## CN1C[C@H]2[C@@H](c3ccccc31)[C@H](CO)N2Cc1ccccc1F
[11]
  AC50: 8.06 µM (active)

## O=C(c1ccccc1)N1CC[C@@H]2[C@@H](CO)Nc3ccc(-c4ccc(F)cc4)cc3[C@@H]21
[11]
  AC50: 5.45 µM (active)

## CO[C@H]1CN(C)C(=O)c2cc(NC(=O)c3ccc(F)cc3)ccc2OC[C@H](C)N(C(=O)c2ccc(F)cc2)C[C@H]1C
[11]
  AC50: 6.03 µM (active)

## COc1ccccc1CNC(=O)C[C@H]1C[C@@H]2c3cc(NC(=O)Nc4ccc(C(F)(F)F)cc4)ccc3O[C@@H]2[C@@H](CO)O1
[11]
  AC50: 8.47 µM (active)

## CN(C)c1ccc2c(c1)[C@@H]1C[C@@H](CC(=O)N3CCc4ccccc4C3)O[C@@H](CO)[C@@H]1O2
[11]
  AC50: 9.12 µM (active)

## C[C@H]1CN([C@@H](C)CO)S(=O)(=O)c2ccc(C#Cc3ccccc3)cc2O[C@@H]1CN(C)C(=O)C1CC1
[11]
  AC50: 5.43 µM (active)

## CC(C)=CCNc1ncnc2nc[nH]c12
Cytochrome P450 1A2
  AC50: 6.31 µM (inconclusive)
